# Measurements as given in patent US11840513B2, “Substituted nicotinimide inhibitors of BTK for treating cancer” (GUANGZHOU INNOCARE PHARMA TECH CO., LTD., priority 2013, dated 2023).
# Biological target: SRC (Homo sapiens (Human), UniProt P12931)
# Experiment: kinase-tagged phage / affinity bead competition binding screen at 1000 nM (qPCR readout)
# Settings: 1000 nM screen
# Chain of SRC (P12931 whole entry, looked up): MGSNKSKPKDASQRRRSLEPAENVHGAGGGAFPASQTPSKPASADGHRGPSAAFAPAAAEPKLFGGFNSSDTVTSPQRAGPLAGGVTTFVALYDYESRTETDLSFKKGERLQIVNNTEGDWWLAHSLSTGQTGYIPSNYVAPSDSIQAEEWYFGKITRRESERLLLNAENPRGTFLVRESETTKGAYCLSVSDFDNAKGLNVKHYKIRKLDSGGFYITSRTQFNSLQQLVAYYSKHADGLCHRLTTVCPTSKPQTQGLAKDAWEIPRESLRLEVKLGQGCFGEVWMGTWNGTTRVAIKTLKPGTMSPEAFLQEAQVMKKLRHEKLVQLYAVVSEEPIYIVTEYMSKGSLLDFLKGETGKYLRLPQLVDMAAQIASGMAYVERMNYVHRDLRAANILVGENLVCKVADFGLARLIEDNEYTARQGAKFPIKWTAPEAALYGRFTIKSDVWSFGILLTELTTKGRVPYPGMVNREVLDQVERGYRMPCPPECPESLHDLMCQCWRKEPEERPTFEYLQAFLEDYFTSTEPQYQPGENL
smiles,measurement,value
"C=CC(=O)N1CCN(c2ccc(C(N)=O)c(-c3ccc(Oc4ccccc4)cc3)n2)CC1 [Example 5, 6-(4-acryloylpiperazin-1-yl)-2-(4-phenoxyphenyl)nicotinamide]",Fold Difference (BTK vs SRC),>100×
